# Source: PMC8775935, “Chebulinic Acid Suppresses Adipogenesis in 3T3-L1 Preadipocytes by Inhibiting PPP1CB Activity” (International Journal of Molecular Sciences, 2022)
# Molecular target: protein phosphatase-1 catalytic subunit beta (PPP1CB) (Homo sapiens, UniProt P62140)
# Assay: DiFMUP fluorescence phosphatase assay, dose-response
# Type: biochemical
# Sequence of protein phosphatase-1 catalytic subunit beta (PPP1CB) (P62140 1-266): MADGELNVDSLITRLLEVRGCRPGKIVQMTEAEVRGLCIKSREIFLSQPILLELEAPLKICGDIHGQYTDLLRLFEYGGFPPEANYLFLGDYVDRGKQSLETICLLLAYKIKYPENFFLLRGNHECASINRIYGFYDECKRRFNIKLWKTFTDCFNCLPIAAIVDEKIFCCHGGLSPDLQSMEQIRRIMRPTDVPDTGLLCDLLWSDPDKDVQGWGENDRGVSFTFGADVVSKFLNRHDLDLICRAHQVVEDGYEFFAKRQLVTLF
structure (smiles),measurement,value
"O=C(O)C[C@@H]1C(=O)O[C@H]2[C@H](OC(=O)c3cc(O)c(O)c(O)c3)[C@@H](OC(=O)c3cc(O)c(O)c4c3[C@H]1[C@H](O)C(=O)O4)[C@H](OC(=O)c1cc(O)c(O)c(O)c1)O[C@@H]2COC(=O)c1cc(O)c(O)c(O)c1 [compound 147, chebulinic acid]",IC50,300 nM
